Patent US12325710B2, “Substituted 1,2,3,4,5,6-hexahydroazepino[4,5-b]indoles for treating brain disorders” (priority 2019, dated 2025)
“Also recorded” adds a separate entry of the source.

Tests used:
[1] = test system: mouse primary sensory cortex; assay: In vivo spine dynamics, transcranial 2-photon imaging; conditions: 24 h after i.p. dose; TBG 50 mg/kg, DOI 10 mg/kg
Protocol: In Vivo Spine Dynamics. Male and female Thy1-GFP-M line mice (n=5 per condition) were purchased from The Jackson Laboratory (JAX #007788) and maintained in UCSC animal facilities according to an IACUC approved protocol. In vivo transcranial two-photon imaging and data analysis were performed as previously described. Briefly, mice were anesthetized with an intraperitoneal (i.p.) injection of a mixture of ketamine (87 mg/kg) and xylazine (8.7 mg/kg). A small region of the exposed skull was manually thinned down to 20-30 μm for optical access. Spines on apical dendrites in mouse primary sensory cortices were imaged using a Bruker Ultima IV two-photon microscope equipped with an Olympus water-immersion objective (40×, NA=0.8) and a Ti:Sapphire laser (Spectra-Physics Mai-Tai, excitation wavelength 920 nm). Images were taken at a zoom of 4.0 (pixel size 0.143×0.143 μm) and Z-step size of 0.7 μm. The mice received an i.p. injection (injection volume=5 mL/kg) of DOI (10 mg/kg) or TBG (50 mg/kg) immediately after they recovered from anesthesia given prior to the first imaging session. The animals were re-imaged 24 h after drug administration. Dendritic spine dynamics were analyzed using ImageJ. Spine formation and elimination were quantified as percentages of spine number on day 0.

5-HT2C = molecular target: T1, 5-HT2C (Homo sapiens, UniProt P28335); assay: 5-HT2C Gq-mediated calcium flux functional assay; type: cell-based
T1 sequence (P28335 33-458): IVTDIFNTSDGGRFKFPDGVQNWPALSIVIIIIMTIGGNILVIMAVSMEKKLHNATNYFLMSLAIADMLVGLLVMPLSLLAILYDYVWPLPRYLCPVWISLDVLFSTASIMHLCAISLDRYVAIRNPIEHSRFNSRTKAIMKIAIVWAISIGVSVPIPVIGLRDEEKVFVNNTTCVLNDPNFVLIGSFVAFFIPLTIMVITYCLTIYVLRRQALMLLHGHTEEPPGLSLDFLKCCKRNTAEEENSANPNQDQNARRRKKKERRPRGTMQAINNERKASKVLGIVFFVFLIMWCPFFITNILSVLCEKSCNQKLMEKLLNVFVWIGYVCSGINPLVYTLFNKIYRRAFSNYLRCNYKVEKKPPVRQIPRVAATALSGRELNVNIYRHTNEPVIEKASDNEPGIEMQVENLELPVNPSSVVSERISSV
Protocol: (§1) Serotonin and Opioid Receptor Functional Assays. Functional assay screens at 5-HT and opioid receptors were performed in parallel using the same compound dilutions and 384-well format high-throughput assay platforms. Assays assessed activity at all human isoforms of the receptors, except where noted for the mouse 5-HT2A receptor. Receptor constructs in pcDNA vectors were generated from the Presto-Tango GPCR library with minor modifications. All compounds were serially diluted in drug buffer (HBSS, 20 mM HEPES, pH 7.4 supplemented with 0.1% bovine serum albumin and 0.01% ascorbic acid) and dispensed into 384-well assay plates using a FLIPR^TETRA (Molecular Devices). Every plate included a positive control such as 5-HT (for all 5-HT receptors), DADLE (DOR), salvinorin A (KOR), and DAMGO (MOR). For measurements of 5-HT2A, 5-HT2B, and 5-HT2C Gq-mediated calcium flux function, HEK Flp-In 293 T-Rex stable cell lines (Invitrogen) were loaded with Fluo-4 dye for one hour, stimulated with compounds and read for baseline (0-10 seconds) and peak fold-over-basal fluorescence (5 minutes) at 25° C. on the FLIPR^TETRA. For measurement of 5-HT6 and 5-HT7a functional assays, Gs-mediated cAMP accumulation was detected using the split-luciferase GloSensor assay in HEKT cells measuring luminescence on a Microbeta Trilux (Perkin Elmer) with a 15 min drug incubation at 25° C. […]

human 5-HT2A receptors = human 5-HT2A receptors (Homo sapiens, UniProt P28223); assay: 5-HT2A Gq-mediated calcium flux functional assay (human); type: cell-based
Sequence of human 5-HT2A receptors (P28223 whole entry): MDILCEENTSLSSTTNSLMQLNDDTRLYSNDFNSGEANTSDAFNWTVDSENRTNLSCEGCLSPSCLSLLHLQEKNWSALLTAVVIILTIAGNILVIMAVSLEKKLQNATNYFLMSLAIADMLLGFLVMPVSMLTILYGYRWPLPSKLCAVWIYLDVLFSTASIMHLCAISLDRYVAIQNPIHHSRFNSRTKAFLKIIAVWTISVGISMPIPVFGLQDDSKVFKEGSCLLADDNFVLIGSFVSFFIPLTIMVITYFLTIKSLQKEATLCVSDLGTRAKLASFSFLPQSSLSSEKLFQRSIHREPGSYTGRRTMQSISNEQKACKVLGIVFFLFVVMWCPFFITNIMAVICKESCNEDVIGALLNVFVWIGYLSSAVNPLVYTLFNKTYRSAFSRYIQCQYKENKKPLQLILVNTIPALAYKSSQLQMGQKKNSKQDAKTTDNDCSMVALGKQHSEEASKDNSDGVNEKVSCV
Protocol: as §1

C57BL/6J mice = assay: Head-twitch response (HTR) assay; conditions: intraperitoneal; fumarate salts; 5-MeO-DMT 10 mg/kg as positive control
physchem = conditions: saline or isotonic
[2] = test system: rat embryonic cortical neurons (DIV20); assay: Spinogenesis in mature cortical cultures (DIV20); type: cell-based; conditions: DIV20, treatment for 24 h
Protocol: Spinogenesis Experiments. Spinogenesis experiments were performed as previously described with the exception that cells were treated on DIV19 and fixed 24 h after treatment on DIV20. (Ly, C. et al., 2018) The images were taken on a Nikon HCA Confocal microscope a with a 100×/NA 1.45 oil objective. DMSO and ketamine (10 μM) were used as vehicle and positive controls, respectively.

5-HT1A = molecular target: T2, 5-HT1A (Homo sapiens, UniProt P08908); assay: 5-HT1A functional assay (Gi/o-mediated cAMP inhibition); type: cell-based
T2 construct: expressed in transfected cells; host or cells: HEKT cells (GloSensor cAMP assay)
T2 sequence (P08908 1-422): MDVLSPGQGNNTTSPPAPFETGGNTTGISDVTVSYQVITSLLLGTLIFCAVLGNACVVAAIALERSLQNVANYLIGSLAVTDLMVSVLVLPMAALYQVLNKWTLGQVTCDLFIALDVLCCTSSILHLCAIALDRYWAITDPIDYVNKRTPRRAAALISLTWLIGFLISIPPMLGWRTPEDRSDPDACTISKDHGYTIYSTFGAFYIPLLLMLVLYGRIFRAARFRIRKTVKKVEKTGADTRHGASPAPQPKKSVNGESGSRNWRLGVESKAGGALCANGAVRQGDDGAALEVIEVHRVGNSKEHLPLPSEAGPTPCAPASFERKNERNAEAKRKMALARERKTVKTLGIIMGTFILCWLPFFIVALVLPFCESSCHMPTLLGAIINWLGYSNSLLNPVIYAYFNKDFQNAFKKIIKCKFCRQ
Protocol: as §1

larval zebrafish = assay: Heart rate and arrhythmia in immobilized larval zebrafish
zebrafish = assay: Zebrafish developmental toxicity assay; type: in vivo

With `COc1ccc2c3c([nH]c2c1)CCN(C)CC3` [TBG] as the compound, how does the spine elimination [1] read?
The spine elimination was “no effect on spine elimination; also recorded: Neither TBG nor DOI affected spine elimination”.

And the spine formation [1]?
Its spine formation is “increased spine formation”.

What about the “5-HT2C agonist activity compared to 5-MeO-DMT” value (5-HT2C) of the same compound?
The value was “weaker 5-HT1A and 5-HT2C agonist activity”.

And the “agonist activity at human 5-HT2A receptors” value (human 5-HT2A receptors)?
The value was “potent agonist activity”.

What about the “hallucinogenic potential (head-twitch response)” value (C57BL/6J mice) of the same compound?
Its value is “did not display hallucinogenic potential”.

What about the solubility (physchem) of the same compound?
The solubility was no less than 40 mg/mL.

And the dendritic spine density [2]?
The dendritic spine density was “increases dendritic spine density to a comparable extent as ibogaine”.

What about the “5-HT1A agonist activity compared to 5-MeO-DMT” value (5-HT1A) of the same compound?
Its value is “weaker 5-HT1A and 5-HT2C agonist activity”.

What about the “heart rate (bradycardia)” value (larval zebrafish) of the same compound?
The value was “Neither IBG nor TBG induced these undesirable phenotypes; also recorded: do not induce bradycardia”.

What about the “likelihood of arrhythmias (ratio of atrium to ventricle BPM)” value (larval zebrafish) of the same compound?
The value was “Neither IBG nor TBG induced these undesirable phenotypes”.

What about the “proportion of viable to non-viable fish” value (zebrafish; 66 μM, 5 dpf) of the same compound?
The value was “statistically indistinguishable from vehicle control; also recorded: does not cause developmental toxicity”.

What about the “malformations, mortality, non-viable fish” value (zebrafish; 100 μM, 2 and 5 dpf) of the same compound?
Its value is “significantly fewer non-viable fish than ibogaine or noribogaine treatments”.
